Data taken from US9365851B2, “Spalt-like transcription factor 4 (SALL4) and uses thereof” (National University of Singapore, priority 2011, dated 2016).
Like-named read-outs stand apart in the source and are kept apart here.

Experiments:
[1] = tested on: OV90; test: Peptide treatment of ovarian cancer cells; format: cell-based
Experimental: Mut-peptide: mutant peptide; WT-peptide: wild-type peptide.
To understand the mechanism(s) of SALL4 function(s), SALL4-associated proteins were identified by tandem mass spectrometry. Components of the Mi-2/nucleosome remodeling and deacetylase (NuRD) complex were found in SALL4-immunocomplexes along with HDAC activity in ESCs with endogenous SALL4 expression and 293T cells overexpressing SALL4. The SALL4-mediated transcriptional regulation was tested on one potential target gene: Phosphatase and Tensin Homolog (Pten). Pten was confirmed as SALL4 downstream targets by chromatin-immunoprecipitation (ChIP), and its expression level, when tested by quantitative reverse transcription polymerase chain reaction (qRT-PCR), was decreased in 293T cells overexpressing SALL4. […] A small peptide that can block the oncogenic role of SALL4 in repressing Pten has been generated.

[2] = tested on: SNU-398 cells; test: Caspase 3/7 assay in SNU-398 cells; format: cell-based, human; details: SNU-398 after knockdown
From the text: FIGS. 25A-25G: Functional roles of SALL4 in HCC. (25A) qPCR analysis of relative SALL4A and SALL4B expression on SNU-398 cells four days post-transduction. Error bars indicate standard error of three replicates. (25B) Western blot analysis of SALL4 expression on SNU-398 cells four days post-transduction. (25C) MTS analysis of cell viability upon gene knockdown by scrambled control shRNA (Scr) or E5 shRNA targeting SALL4 (E5) on SNU-398 (left) or SNU-387 (right) cells. Error bars indicate standard error of three replicates. (25D) Cell counting assay using trypan blus stain. […] (25F) Effects of SALL4 gene knockdown on tumorigenecity of HuH-7 cells. Representative images of mice transplanted with HuH-7 cells infected with virus expressing scrambled shRNA or E5 shRNA (top).
To further characterize the effects of loss of SALL4 in HCC cells, more functional assays in SNU-398 cells, which express high SALL4, were carried out. […] Furthermore, increased apoptosis in SALL4-knockdown HCC cells was observed by assessing caspase activities. Increased caspase 3/7 activities was observed upon loss of SALL4 in SNU-398 HCC cells (FIG. 30D), as well as increased cleaved caspase 3 (FIG. 30E).

[3] = tested on: SALL4A and SALL4B; test: SALL4 knock-down in endometrial cancer cells (Western blot, qRT-PCR); format: cell-based, human; details: AN3CA and HEC-1A
From the text: In brief, the expression plasmids for human SALL4A and SALL4B were constructed using FUW-Luc-mCh-puro vector (FIG. 43A). SALL4A or SALL4B mutant preserving the same amino acid sequence, but containing triple-point mutations within the SALL4shRNA1 target nucleotide sequence, which renders the transgenes resistant to SALL4 shRNA targeting, were generated using QuikChange site-directed mutagenesis kit (Stratagene) and confirmed by sequencing. Short hairpin RNAs set for human SALL4 in pLKO.1-puro vector were purchased from Open Biosystems (RHS3979) and knockdown efficiency was further evaluated. Two of them, designated as SALL4shRNA1 and SALL4shRNA 2, were selected for subsequent experiments. The sequences for SALL4 shRNAs and Scramble shRNA are listed as following: SALL4shRNA1: […] (SEQ ID NO: 3); SALL4shRNA 2: CTATTTAGCCAAAGGCAAA (SEQ ID NO: 2); Scr-shRNA: […] (SEQ ID NO: 14)
To assess the biological functional role of SALL4 in endometrial cancer, first evaluated was SALL4 expression in a panel of six endometrial cancer cell lines using quantitative real-time PCR to select for appropriate models for our functional studies (FIG. 40). […]

[4] = tested on: H661 lung carcinoma cells; test: MTS assay in lung carcinoma cells after knock-down; format: cell-based
From the text: FIGS. 16A-16B: Loss of SALL4 in lung cancer cells that express high level of SALL4 decreases cell viability. (16A) qPCR (bar chart) and western blot were done to confirm the dwonregulation of SALL4 RNA (qPCR) and protein (western blot) expression levels upon SALL4 gene knockdown by shRNA (E5) compared to the control (SC).

[5] = tested on: PTEN; test: PTEN expression upon SALL4 gene knockdown in HCC cells (qPCR, Western blot densitometry); format: cell-based, human; details: day 4 post-transduction
From the text: FIGS. 26A-26C: PTEN repression as a mechanism of SALL4-induced HCC. (26A) qPCR analysis of PTEN expression upon SALL4 gene knockdown. […] E5 shRNA is a shRNA specifically targets SALL4. (26B) Western blot analysis of PTEN protein expression upon SALL4 gene knockdown using fractionated nuclear (N) and cytoplasmic […] lysates. A total cell lysate (T) was used for protein expression analysis too. SALL4 is exclusively present in cell nuclei (left). Densitometry analysis of total PTEN expression (top right) and cytoplasmic PTEN expression (bottom right).
PTEN expression upon SALL4 gene knockdown was investigated by qPCR and western blot.

Substance | living cells / cell death [1] | living cells / cell death ([1]; listed as small peptide) | caspase 3/7 activity (apoptosis) [2] | down-regulation of SALL4A and SALL4B [3] | cell viability (MTS) [4] | increase of PTEN mRNA [5] [%]
H-MSRRKQAKPQHI-OH [wt peptide, MSRRKQAKPQHI] | decreased living cells | resulted in cell death |  |  |  | 
CTATTTAGCCAAAGGCAAA (short hairpin RNA, chemistry and delivery not given here, further chemistry not given here) [E5 shRNA] |  |  | increase in apoptosis activity | could down-regulate SALL4A and SALL4B efficiently | decrease of cell viability | 16.5
